This is an account of results in patent US20240150340A1, “CDK Inhibitors And Their Use As Pharmaceuticals” (Prelude Therapeutics Incorporated, priority 2022, published 2024).

Assay [1] concerns the target T1, CDK2/Cyclin E2 (Homo sapiens, UniProt P24941).
T1 construct: Recombinant protein complex CDK2/Cyclin E2, expressed from insect cell, was purchased from ProQinase
Nature of the assay: CDK2/CyclinE2 Enzymatic Activity Assay (TR-FRET). Format: biochemical. The note with it: ATP 1 mM final, read-out: CDK2_E1 IC50. As for the experimental part: CDK2/CyclinE2 Enzymatic Activity Assay
The inhibitory activity of compounds was evaluated in vitro using TR-FRET assay with white 384-well low volume microplate (Greiner Bio-One). CDK2/Cyclin E2 catalyzed phosphorylation of peptide in the presence and absence of compounds was measured and used in IC50 determination. Recombinant protein complex CDK2/Cyclin E2, expressed from insect cell, was purchased from ProQinase. Testing compounds were dissolved in DMSO at 1 mM and tested in 9-dose IC50 mode. The reaction mixture was prepared by mixing CDK2/CyclinE2 (1 nM final), ULight-4E-BP1 (50 nM final, Perkinelmer, TRF0128-D), and ATP (1 mM final) in assay buffer (20 mM of HEPES pH 7.4, 1 mM of EGTA, 0.05% BSA, 0.005% Tween 20, and 1 mM TCEP). The compound of interest in DMSO was added to each well in 3-fold serial dilution by dispenser (TECAN D300E) to make a 9.9 μL of reaction mixture. After 20 minutes preincubation at room temperature, 0.1 μL MgCl2 (10 mM final) was added to initiate the reaction. Following a 45 minute incubation at 37° C., the reaction was stopped by addition of 2 μL of quenching buffer consisting of Lance detection buffer (Perkinelmer CR97-100C), LANCE Ultra Europium-anti-P-4E-BP1 (Perkinelmer, TRF0216-D), EDTA, and incubated at room temperature for additional 60 minutes in the dark. The reaction signal was measured by Envision multimode plate reader (PerkinElmer, 2102-0010). IC50 values were determined by fitting the data to the standard 4 parameters with Hill Slope using GraphPad Prism software.
On the technique in general: TR-FRET usually uses a lanthanide donor and a delayed reading to cut background.

Assay [2] concerns OVCAR3 p-RB. As to the kind of experiment: pRB ICW Assay in OVCAR3 Cells. The assay is classed as cell-based. The note with it: Homo sapiens, OVCAR-3, incubated with compound for 2 hours. As for the experimental part:
pRB ICW Assay in OVCAR3 Cells
OVCAR3 cells were maintained in RPMI (Corning, Catalog #: 10-040-CV) supplemented with 10% v/v FBS (Gibco, Catalog #: 26140-079), 1% v/v Penicillin Streptomycin (Gibco, Catalog #15140-122.) OVCAR3 cells grown at log phase were trypsinized, counted, and resuspended in fresh medium to reach a final density of 6.7e4 cells/mL and 75 μL of culture were dispensed into a 384-well plate (Falcon, cat #353962) using a Multidrop Combi dispenser (Thermo Scientific). The next day, compounds were dispensed as a 9-point, ½ log serial dilution using a Tecan digital dispenser (D300e), and cells were incubated with compound for 2 hours in a humidified incubator at 37° C. A reference compound at a final concentration of 10 μM was used as a control for maximum inhibition. Each compound was tested in duplicate for each experiment. At the end of the incubation, […] (Electron Microscopy, cat #15710) was slowly added to each well and the plate was incubated at room temperature (RT) for 30 minutes to fix cells. Cells were then permeabilized by incubating with 50 μL/well of wash buffer (1×PBS with 0.1% Triton X-100) 5×5 minutes, followed by 1 hour blocking with 30 μL/well of Odyssey blocking buffer (Li-COR, cat #927-40000), at RT. Anti-phosphor RB antibody (Cell signaling 8516S) was diluted 1:1000 in Odyssey blocking buffer and 20 μL was added to all wells and incubated overnight in 4° C. with gently rocking. The next day, cells were washed 5×5 min with 50 μL/well of wash buffer, followed with 1 hour incubation with secondary antibody and DRAQ5 diluted in Odyssey blocking buffer (1:500 dilution for secondary antibody and 1:2000 dilution for DRAQ5), 5×5 min washes, and one last wash with water. Plates were dried in 37° C. oven for 5 minutes and scanned using Li-COR Odyssey CLx imaging system to acquire intensities at 700 and 800 nm channels.

Each structure is given as a SMILES string. pIC50: −log10 of the molar value. Some results are limits rather than exact numbers.

As for `CC(C)(O)Cc1cnc(-c2nc(N[C@H]3CCN(S(=O)(=O)c4cn[nH]c4)C[C@H]3F)ncc2C(F)(F)F)s1` [Example 137, 1-(2-(2-(((3R,4S)-1-((1H-pyrazol-4-yl)sulfonyl)-3-fluoropiperidin-4-yl)amino)-5-(trifluoromethyl)pyrimidin-4-yl)thiazol-5-yl)-2-methylpropan-2-ol], the pIC50 in assay [1] and in assay [2] was ≥ 7.00 throughout.
`C[C@@H]1CN(S(=O)(=O)c2cnn(C)c2)CC[C@@H]1Nc1ncc(C(F)(F)F)c(-c2ncc(C(O)C(F)F)s2)n1` (stereo partly drawn) [Example 138, 2,2-difluoro-1-(2-(2-(((3R,4S)-3-methyl-1-((1-methyl-1H-pyrazol-4-yl)sulfonyl)piperidin-4-yl)amino)-5-(trifluoromethyl)pyrimidin-4-yl)thiazol-5-yl)ethan-1-ol]: the pIC50 in assay [1] and in assay [2] was ≥ 7.00 each time.
Regarding `C[C@@H]1CN(S(=O)(=O)c2cn(C)cn2)CC[C@@H]1Nc1ncc(C(F)(F)F)c(-c2ncc(C(O)C(F)F)s2)n1` (stereo partly drawn) [Example 139, 2,2-difluoro-1-(2-(2-(((3R,4S)-3-methyl-1-((1-methyl-1H-imidazol-4-yl)sulfonyl)piperidin-4-yl)amino)-5-(trifluoromethyl)pyrimidin-4-yl)thiazol-5-yl)ethan-1-ol], the pIC50 in assay [1] and in assay [2] was ≥ 7.00 in each case.
For `C[C@@H]1CN(S(C)(=O)=O)CC[C@@H]1Nc1ncc(C(F)(F)F)c(-c2ncc(C(O)C(F)(F)F)s2)n1` (stereo partly drawn) [Example 140, 2,2,2-trifluoro-1-(2-(2-(((3R,4S)-3-methyl-1-(methylsulfonyl)piperidin-4-yl)amino)-5-(trifluoromethyl)pyrimidin-4-yl)thiazol-5-yl)ethan-1-ol], the pIC50 in assay [1] is ≥ 7.00; in assay [2], < 6.30.
As for `C[C@@H]1CN(S(=O)(=O)c2cnn(C)c2)CC[C@@H]1Nc1ncc(C(F)(F)F)c(-c2ncc(C(O)C(F)(F)F)s2)n1` (stereo partly drawn) [Example 141, 2,2,2-trifluoro-1-(2-(2-(((3R,4S)-3-methyl-1-((1-methyl-1H-pyrazol-4-yl)sulfonyl)piperidin-4-yl)amino)-5-(trifluoromethyl)pyrimidin-4-yl)thiazol-5-yl)ethan-1-ol], the pIC50 was ≥ 7.00 in assay [1] and 6.30 to 7.00 in assay [2].
Take `C[C@@H]1CN(S(=O)(=O)c2cnn(C)c2)CC[C@@H]1Nc1ncc(C(F)(F)F)c(-c2ncc(C(C)(O)C(F)F)s2)n1` (stereo partly drawn) [Example 143, 1,1-difluoro-2-(2-(2-(((3R,4S)-3-methyl-1-((1-methyl-1H-pyrazol-4-yl)sulfonyl)piperidin-4-yl)amino)-5-(trifluoromethyl)pyrimidin-4-yl)thiazol-5-yl)propan-2-ol]: the negative logarithm of the IC50 (pIC50) in assay [1] and in assay [2] was ≥ 7.00 each time.
On to `C[C@@H]1CN(S(=O)(=O)c2cnn(C)c2)CC[C@@H]1Nc1ncc(C(F)(F)F)c(-c2ncc(C(O)CF)s2)n1` (stereo partly drawn) [Example 144, 2-fluoro-1-(2-(2-(((3R,4S)-3-methyl-1-((1-methyl-1H-pyrazol-4-yl)sulfonyl)piperidin-4-yl)amino)-5-(trifluoromethyl)pyrimidin-4-yl)thiazol-5-yl)ethan-1-ol], for which the pIC50 in assay [1] is ≥ 7.00; in assay [2] it was 6.30 to 7.00.
`C[C@@H]1CN(S(C)(=O)=O)CC[C@@H]1Nc1ncc(C(F)(F)F)c(-c2ncc(C(O)CF)s2)n1` (stereo partly drawn) [Example 145, 2-fluoro-1-(2-(2-(((3R,4S)-3-methyl-1-(methylsulfonyl)piperidin-4-yl)amino)-5-(trifluoromethyl)pyrimidin-4-yl)thiazol-5-yl)ethan-1-ol]: the pIC50 in assay [1] was ≥ 7.00; in assay [2], < 6.30.
The corresponding values for `C[C@@H]1CN(S(C)(=O)=O)CC[C@@H]1Nc1ncc(C(F)(F)F)c(-c2ncc(C(O)C(F)F)s2)n1` (stereo partly drawn) [Example 146, 2,2-difluoro-1-(2-(2-(((3R,4S)-3-methyl-1-(methylsulfonyl)piperidin-4-yl)amino)-5-(trifluoromethyl)pyrimidin-4-yl)thiazol-5-yl)ethan-1-ol] are ≥ 7.00 and 6.30 to 7.00.
Taken in the same sequence, the figures for `C[C@@H]1CN(S(=O)(=O)N2CCOCC2)CC[C@@H]1Nc1ncc(C(F)(F)F)c(-c2ncc(CC(C)(C)O)s2)n1` [Example 147, 2-methyl-1-(2-(2-(((3R,4S)-3-methyl-1-(morpholinosulfonyl)piperidin-4-yl)amino)-5-(trifluoromethyl)pyrimidin-4-yl)thiazol-5-yl)propan-2-ol] were ≥ 7.00 and < 6.30.
Taken in the same sequence, the figures for `C[C@@H]1CN(S(=O)(=O)N2CCN(C)CC2)CC[C@@H]1Nc1ncc(C(F)(F)F)c(-c2ncc(CC(C)(C)O)s2)n1` [Example 148, 2-methyl-1-(2-(2-(((3R,4S)-3-methyl-1-((4-methylpiperazin-1-yl)sulfonyl)piperidin-4-yl)amino)-5-(trifluoromethyl)pyrimidin-4-yl)thiazol-5-yl)propan-2-ol] were ≥ 7.00 and < 6.30.
`C[C@@H]1CN(S(=O)(=O)N(C)C)CC[C@@H]1Nc1ncc(C(F)(F)F)c(-c2ncc(CC(C)(C)O)s2)n1` [Example 149, (3R,4S)-4-((4-(5-(2-hydroxy-2-methylpropyl)thiazol-2-yl)-5-(trifluoromethyl)pyrimidin-2-yl)amino)-N,N,3-trimethylpiperidine-1-sulfonamide]: the pIC50 in assay [1] is ≥ 7.00; in assay [2], < 6.30.
Taken in the same sequence, the figures for `C[C@@H]1CN(S(=O)(=O)c2cnn(C)c2)CC[C@@H]1Nc1ncc(C(F)(F)F)c(-c2ncc(C3(O)CC3)s2)n1` [Example 150, 1-(2-(2-(((3R,4S)-3-methyl-1-((1-methyl-1H-pyrazol-4-yl)sulfonyl)piperidin-4-yl)amino)-5-(trifluoromethyl)pyrimidin-4-yl)thiazol-5-yl)cyclopropan-1-ol] were ≥ 7.00 and 6.30 to 7.00.
As for `C[C@@H]1CN(S(C)(=O)=O)CC[C@@H]1Nc1ncc(C(F)(F)F)c(-c2ncc(C3(O)CC3)s2)n1` [Example 151, 1-(2-(2-(((3R,4S)-3-methyl-1-(methylsulfonyl)piperidin-4-yl)amino)-5-(trifluoromethyl)pyrimidin-4-yl)thiazol-5-yl)cyclopropan-1-ol], the figures for the pIC50 in assay [1] and in assay [2] were ≥ 7.00 and < 6.30, respectively.
Take `CC(C)(O)Cc1cnc(-c2nc(N[C@H]3CCN(S(C)(=O)=O)C[C@H]3F)ncc2Cl)s1` [Example 152, 1-(2-(5-chloro-2-(((3R,4S)-3-fluoro-1-(methylsulfonyl)piperidin-4-yl)amino)pyrimidin-4-yl)thiazol-5-yl)-2-methylpropan-2-ol]: the negative-log IC50 (pIC50) in assay [1] was ≥ 7.00; in assay [2], 6.30 to 7.00.
Consider `CC(C)(O)Cc1cnc(-c2nc(N[C@H]3CCN(S(C)(=O)=O)C[C@H]3F)ncc2C#N)s1` [Example 153, 2-(((3R,4S)-3-fluoro-1-(methylsulfonyl)piperidin-4-yl)amino)-4-(5-(2-hydroxy-2-methylpropyl)thiazol-2-yl)pyrimidine-5-carbonitrile], for which the pIC50 in assay [1] is ≥ 7.00; in assay [2] it was < 6.30.
The corresponding values for `CC(C)(O)Cc1cnc(-c2nc(N[C@H]3CCN(S(C)(=O)=O)C[C@H]3F)ncc2C(F)F)s1` [Example 154, 1-(2-(5-(difluoromethyl)-2-(((3R,4S)-3-fluoro-1-(methylsulfonyl)piperidin-4-yl)amino)pyrimidin-4-yl)thiazol-5-yl)-2-methylpropan-2-ol] are ≥ 7.00 and < 6.30.

As usually defined, the pIC50 is the IC50 on a negative log10 scale, so that one unit is a factor of ten.
